Reference: patent US20060142354A1, “Use of epothilone derivatives for the treatment of hyperparathyroidism” (priority 2002, published 2006)

Columns and labels:
Assay type in all cases: cell-based, human
[1] = system: Tumor disks from seven fresh surgical specimens; test: in vitro angiogenesis assay, mean over all tumors; settings: Mean +/− SEM of seven tumors; for % Initiation % ↓ / Al (0-16) % ↓: 10^−8 M, decrease vs control
Description: (§1) It is submitted that at least part of the effect observed with the compounds of formula I on the diseases mentioned herein are resulting from the inhibition of angiogenesis. […] It is known that human vein disks incorporated into a 0.3% fibrin-thrombin clot will develop angiogenic vessel growth from the cut edge of the vessel disk.
(§2) METHODS: Tumor disks (2 mm in diameter) from seven fresh surgical specimens are incorporated into fibrin-thrombin clots overlayed with nutrient medium containing 20% fetal bovine serum. The fragments are allowed to become angiogenic and on day 18, nutrient medium or nutrient medium containing a compound of formula I, is added. Tumor disks are visually assessed over time to determine the percent of wells that initiated an angiogenic response (% I). Neovessel growth, density, and length are graded at intervals using a semi-quantitative visual neovessel growth-rating scheme [angiogenic index (AI), 0-16 scale]. Statistical significance of the results is tested using comparison of two proportions for % initiation and t-tests for the angiogenic index (p<0.05 considered significant*).

[2] = system: Midgut carcinoid tumor disks; test: in vitro angiogenesis assay, tumor disks in fibrin-thrombin clot
Description: as §1, §2

[3] = system: Bronchial carcinoid tumor disks; test: as above
Description: as §1, §2

[4] = system: Breast carcinoma tumor disks; test: as above
Description: as §1, §2

[5] = system: Thyroid cancer tumor disks; test: as above; settings: Thyroid cancer (identified as a parathyroid adenoma)
Description: as §1, §2

[6] = system: Renal cell carcinoma tumor disks; test: as above
Description: as §1, §2

[7] = system: Midgut carcinoid (met) tumor disks; test: as above
Description: as §1, §2

[8] = system: Thymic carcinoid tumor disks; test: as above
Description: as §1, §2

[9] = percent of wells that initiated an angiogenic response

Question: Which results are given for `C/C(=C\c1csc(C)n1)[C@@H]1C[C@@H]2O[C@]2(C)CCC[C@H](C)[C@H](O)[C@@H](C)C(=O)C(C)(C)[C@@H](O)CC(=O)O1` [epothilone B]?
Answer: Al (0-16) EpoB 10^−8 M ([1]; angiogenic index, 0-16 scale): 3 ± 1.1; % Initiation EpoB 10^−8 M [1, 9]: 17.2 ± 7.4%; % Initiation % ↓ [1]: 60±13.8%; Al (0-16) % ↓ [1]: 73±9%; % Initiation % ↓ ([1]; listed as EpoB): 60 ± 14%; Al (0-16) % ↓ ([1]; listed as EpoB): 73 ± 9%; % Initiation % ↓ ([2]; 10^−8 M, decrease vs control): 15%; Al (0-16) % ↓ ([2]; 10^−8 M, decrease vs control): 40%; Al (0-16) EpoB 10^−8 M ([2]; angiogenic index, 0-16 scale): 8.2; % Initiation EpoB 10^−8 M [2, 9]: 20%; % Initiation % ↓ ([3]; 10^−8 M, decrease vs control): 12%; Al (0-16) % ↓ ([3]; 10^−8 M, decrease vs control): 40%; Al (0-16) EpoB 10^−8 M ([3]; angiogenic index, 0-16 scale): 6.1; % Initiation EpoB 10^−8 M [3, 9]: 37%; % Initiation % ↓ ([4]; 10^−8 M, decrease vs control): 94%; Al (0-16) % ↓ ([4]; 10^−8 M, decrease vs control): 91%; Al (0-16) EpoB 10^−8 M ([4]; angiogenic index, 0-16 scale): 1; % Initiation EpoB 10^−8 M [4, 9]: 3.3%; Al (0-16) EpoB 10^−8 M ([5]; angiogenic index, 0-16 scale): 2.1; % Initiation EpoB 10^−8 M [5, 9]: 50%; % Initiation % ↓ ([5]; 10^−8 M, decrease vs control): 50%; Al (0-16) % ↓ ([5]; 10^−8 M, decrease vs control): 85%; % Initiation % ↓ ([6]; 10^−8 M, decrease vs control): 88%; Al (0-16) % ↓ ([6]; 10^−8 M, decrease vs control): 80%; Al (0-16) EpoB 10^−8 M ([6]; angiogenic index, 0-16 scale): 1; % Initiation EpoB 10^−8 M [6, 9]: 6.7%; % Initiation % ↓ ([7]; 10^−8 M, decrease vs control): 100%; Al (0-16) % ↓ ([7]; 10^−8 M, decrease vs control): 100%; Al (0-16) EpoB 10^−8 M ([7]; angiogenic index, 0-16 scale): 0; % Initiation EpoB 10^−8 M [7, 9]: 0%; % Initiation % ↓ ([8]; 10^−8 M, decrease vs control): 40%; Al (0-16) % ↓ ([8]; 10^−8 M, decrease vs control): 73%; Al (0-16) EpoB 10^−8 M ([8]; angiogenic index, 0-16 scale): 2.5; % Initiation EpoB 10^−8 M [8, 9]: 3.3%
